One series concerns the target T1, rat PDE10A2 (Rattus norvegicus, UniProt Q9QYJ6).
T1 sequence (Q9QYJ6 1-794): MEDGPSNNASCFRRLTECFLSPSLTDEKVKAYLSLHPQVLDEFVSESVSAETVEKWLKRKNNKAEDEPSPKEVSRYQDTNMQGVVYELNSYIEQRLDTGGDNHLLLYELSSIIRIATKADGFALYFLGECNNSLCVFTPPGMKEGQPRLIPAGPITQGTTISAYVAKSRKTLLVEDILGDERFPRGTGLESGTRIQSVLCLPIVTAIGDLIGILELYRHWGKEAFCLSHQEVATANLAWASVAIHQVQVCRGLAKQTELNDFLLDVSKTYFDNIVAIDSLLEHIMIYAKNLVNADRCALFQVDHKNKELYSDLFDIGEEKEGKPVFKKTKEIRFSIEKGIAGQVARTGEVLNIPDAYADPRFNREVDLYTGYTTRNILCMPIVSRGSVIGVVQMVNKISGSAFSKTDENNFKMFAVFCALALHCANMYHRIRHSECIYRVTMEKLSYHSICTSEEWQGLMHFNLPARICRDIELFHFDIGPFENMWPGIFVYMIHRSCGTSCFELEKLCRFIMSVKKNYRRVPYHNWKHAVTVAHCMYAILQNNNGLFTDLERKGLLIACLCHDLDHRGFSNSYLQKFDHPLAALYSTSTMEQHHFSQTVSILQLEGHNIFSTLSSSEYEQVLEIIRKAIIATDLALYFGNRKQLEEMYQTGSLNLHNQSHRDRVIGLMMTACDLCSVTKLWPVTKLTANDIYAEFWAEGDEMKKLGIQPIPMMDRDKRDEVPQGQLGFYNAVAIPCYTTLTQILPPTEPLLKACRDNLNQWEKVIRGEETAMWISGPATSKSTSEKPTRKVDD
The series can be described thus: rat PDE10A2-cAMP inhibition. It counts as biochemical. To be noted: read-out: pIC50, rat PDE10A2-cAMP inhibition (converted). As for the experimental part:
The affinity of compounds Ia and Ib was determined by measuring rat PDE10A2-cAMP inhibition: […]

The next series concerns the target PDE8A1 (Homo sapiens, UniProt O60658). Description: selectivity over PDE8A1. Format: biochemical.

Experimental findings from patent publication US20110305637A1, “RADIOLABELLED PDE10 LIGANDS” (Janssen Pharmaceutica N.V., priority 2009, published 2011) are described below.

Usually melting point stands for the temperature of the solid-liquid transition.

Molecules are shown by their SMILES.

PDE8A1, sequence (O60658 whole entry, species assumed): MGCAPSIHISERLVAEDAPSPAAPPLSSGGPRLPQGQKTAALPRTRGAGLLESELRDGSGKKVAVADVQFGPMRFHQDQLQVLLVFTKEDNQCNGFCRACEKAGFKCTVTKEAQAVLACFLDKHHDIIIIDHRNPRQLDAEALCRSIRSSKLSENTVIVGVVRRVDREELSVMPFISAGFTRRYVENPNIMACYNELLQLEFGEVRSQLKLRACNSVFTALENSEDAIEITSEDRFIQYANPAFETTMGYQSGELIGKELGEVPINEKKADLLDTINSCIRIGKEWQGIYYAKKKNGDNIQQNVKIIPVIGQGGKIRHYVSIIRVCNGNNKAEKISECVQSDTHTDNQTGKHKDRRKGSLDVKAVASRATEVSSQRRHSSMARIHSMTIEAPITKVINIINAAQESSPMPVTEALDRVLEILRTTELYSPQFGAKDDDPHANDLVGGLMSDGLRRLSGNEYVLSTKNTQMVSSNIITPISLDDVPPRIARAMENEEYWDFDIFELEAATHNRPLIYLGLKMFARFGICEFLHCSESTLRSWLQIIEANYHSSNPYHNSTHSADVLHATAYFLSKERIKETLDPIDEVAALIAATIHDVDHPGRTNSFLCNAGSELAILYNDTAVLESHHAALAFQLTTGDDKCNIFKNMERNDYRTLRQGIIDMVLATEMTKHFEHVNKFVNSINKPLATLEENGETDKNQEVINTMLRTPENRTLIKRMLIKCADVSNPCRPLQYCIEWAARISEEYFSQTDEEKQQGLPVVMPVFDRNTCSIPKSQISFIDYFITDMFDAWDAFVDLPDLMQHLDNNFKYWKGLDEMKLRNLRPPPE

`FCCCn1cc(-c2ccncc2)c(-c2ccc(OCc3ccc4ccccc4n3)cc2)n1` [Ib, 2-{4-[1-(3-Fluoropropyl)-4-pyridin-4-yl-1H-1-pyrazol-3-yl]-phenoxymethyl}-quinoline] displayed a melting point of 101.9 °C. At rat PDE10A2, the IC50 was 0.692 nM. The “selective over PDE8A1” value at PDE8A1 is greater than 200 fold.
Take `FCCn1cc(-c2ccncc2)c(-c2ccc(OCc3ccc4ccccc4n3)cc2)n1` [Ia, 2-{4-[1-(2-Fluoroethyl)-4-pyridin-4-yl-1H-1-pyrazol-3-yl]-phenoxymethyl}-quinoline]: the IC50 at rat PDE10A2 is 0.479 nM.
